Test system: MV-4-11 cells
Experiment: Gene expression microarray analysis (Affymetrix PrimeView) and GSEA
Format: cell-based, human
Design: RFU PODN (11730768_x_at) / Fold change /veh PODN (11730768_x_at) / RFU LINC00158 (11744669_a_at) / Fold change /veh LINC00158 (11744669_a_at) / RFU DUSP10 (11751237_a_at) / Fold change /veh DUSP10 (11751237_a_at) / RFU ID3 (11757404_x_at) / Fold change /veh ID3 (11757404_x_at) / RFU PLEKHG5 (11737974_s_at) / Fold change /veh PLEKHG5 (11737974_s_at) / RFU LRRC4B (11730491_at) / Fold change /veh LRRC4B (11730491_at) / RFU GIMAP4 (11747438_a_at) / Fold change /veh GIMAP4 (11747438_a_at) / RFU KRT8 (11758183_x_at) / Fold change /veh KRT8 (11758183_x_at) / RFU CNN1 (11734310_a_at) / Fold change /veh CNN1 (11734310_a_at) / RFU VPS37D (11726825_at) / Fold change /veh VPS37D (11726825_at) / RFU C10orf10 (11716522_x_at) / Fold change /veh C10orf10 (11716522_x_at) / RFU KIR2DL2 /// KIR2DL4 /// KIR2DL5A /// KIR2DL5B /// KIR2DS1 /// KIR2DS2 /// KIR2DS3 /// KIR2DS4 /// KIR3DL3 /// KIR3DL3 /// KIR3DS1 (11738374_at) / Fold change /veh KIR2DL2 /// KIR2DL4 /// KIR2DL5A /// KIR2DL5B /// KIR2DS1 /// KIR2DS2 /// KIR2DS3 /// KIR2DS4 /// KIR3DL3 /// KIR3DL3 /// KIR3DS1 (11738374_at) / RFU C1QL1 (11718748_at) / Fold change /veh C1QL1 (11718748_at) / RFU TMPRSS4 (11747572_a_at) / Fold change /veh TMPRSS4 (11747572_a_at) / RFU HAMP (11756126_x_at) / Fold change /veh HAMP (11756126_x_at) / RFU RNFT2 (11725882_a_at) / Fold change /veh RNFT2 (11725882_a_at) / RFU NR4A2 (11747474_a_at) / Fold change /veh NR4A2 (11747474_a_at) / RFU ABCC12 (11746883_a_at) / Fold change /veh ABCC12 (11746883_a_at) / RFU TMEM136 (11760407_x_at) / Fold change /veh TMEM136 (11760407_x_at) / RFU CLDN22 /// WWC2 (11732394_at) / Fold change /veh CLDN22 /// WWC2 (11732394_at) / RFU HLA-DPB1 (11760878_x_at) / Fold change /veh HLA-DPB1 (11760878_x_at) / RFU SPINT1 (11716480_a_at) / Fold change /veh SPINT1 (11716480_a_at) / RFU GAP43 (11754022_s_at) / Fold change /veh GAP43 (11754022_s_at) / RFU A4GNT (11735810_at) / Fold change /veh A4GNT (11735810_at) / RFU PRB3 (11715151_x_at) / Fold change /veh PRB3 (11715151_x_at) / RFU TUBB4B (11761932_at) / Fold change /veh TUBB4B (11761932_at) / RFU CAPN14 (11732068_a_at) / Fold change /veh CAPN14 (11732068_a_at) / RFU TMCC2 (11721928_a_at) / Fold change /veh TMCC2 (11721928_a_at) / RFU IRGQ (11745062_a_at) / Fold change /veh IRGQ (11745062_a_at) / RFU FAM174B (11720279_a_at) / Fold change /veh FAM174B (11720279_a_at) / RFU TMPRSS4 (11748680_a_at) / Fold change /veh TMPRSS4 (11748680_a_at) / RFU FAM212B (11763350_a_at) / Fold change /veh FAM212B (11763350_a_at) / RFU PLEKHG5 (11743358_a_at) / Fold change /veh PLEKHG5 (11743358_a_at) / RFU ZSCAN30 (11745921_a_at) / Fold change /veh ZSCAN30 (11745921_a_at) / RFU CMKLR1 (11741424_a_at) / Fold change /veh CMKLR1 (11741424_a_at) / RFU LOC101060620 /// MAPK8IP1 (11723275_at) / Fold change /veh LOC101060620 /// MAPK8IP1 (11723275_at) / RFU SPTSSB (11747773_x_at) / Fold change /veh SPTSSB (11747773_x_at) / RFU PRSS12 (11739890_at) / Fold change /veh PRSS12 (11739890_at) / RFU BIN1 (11741810_x_at) / Fold change /veh BIN1 (11741810_x_at) / RFU WNT11 (11732464_a_at) / Fold change /veh WNT11 (11732464_a_at) / RFU C10orf10 (11716521_a_at) / Fold change /veh C10orf10 (11716521_a_at) / RFU C5orf56 (11738089_at) / Fold change /veh C5orf56 (11738089_at) / RFU CYB561 (11721691_x_at) / Fold change /veh CYB561 (11721691_x_at) / RFU ANKRD19P (11752326_a_at) / Fold change /veh ANKRD19P (11752326_a_at) / RFU OR2T12 /// OR2T33 /// OR2T8 (11738714_s_at) / Fold change /veh OR2T12 /// OR2T33 /// OR2T8 (11738714_s_at) / RFU VCAN (11748164_a_at) / Fold change /veh VCAN (11748164_a_at) / RFU JSRP1 (11732532_at) / Fold change /veh JSRP1 (11732532_at) / RFU KRTAP10-11 (11738290_x_at) / Fold change /veh KRTAP10-11 (11738290_x_at) / RFU MYO3A (11730013_a_at) / Fold change /veh MYO3A (11730013_a_at) / RFU EBF3 (11725865_a_at) / Fold change /veh EBF3 (11725865_a_at) / RFU CAMK2N1 (11719241_x_at) / Fold change /veh CAMK2N1 (11719241_x_at) / RFU C5orf56 (11738088_a_at) / Fold change /veh C5orf56 (11738088_a_at) / RFU OLFML3 (11715873_a_at) / Fold change /veh OLFML3 (11715873_a_at) / RFU LOC100653217 /// NTM (11731650_a_at) / Fold change /veh LOC100653217 /// NTM (11731650_a_at) / RFU MAPK11 (11762145_a_at) / Fold change /veh MAPK11 (11762145_a_at) / RFU FIZ1 (11724087_x_at) / Fold change /veh FIZ1 (11724087_x_at) / RFU OASL (11726364_x_at) / Fold change /veh OASL (11726364_x_at) / RFU SOX15 (11748057_x_at) / Fold change /veh SOX15 (11748057_x_at) / RFU CD79A (11719716_a_at) / Fold change /veh CD79A (11719716_a_at) / RFU HIST1H1D (11736915_at) / Fold change /veh HIST1H1D (11736915_at) / RFU CASKIN2 (11723855_a_at) / Fold change /veh CASKIN2 (11723855_a_at) / RFU LOC730098 (11760151_x_at) / Fold change /veh LOC730098 (11760151_x_at) / RFU OR4N2 (11742367_at) / Fold change /veh OR4N2 (11742367_at) / RFU PRRT2 (11749266_a_at) / Fold change /veh PRRT2 (11749266_a_at) / RFU SNX32 (11753110_a_at) / Fold change /veh SNX32 (11753110_a_at) / RFU CDHR5 (11726645_a_at) / Fold change /veh CDHR5 (11726645_a_at) / RFU RCAN1 (11760418_a_at) / Fold change /veh RCAN1 (11760418_a_at) / RFU FAM167A (11723789_a_at) / Fold change /veh FAM167A (11723789_a_at) / RFU FAM26E (11764081_at) / Fold change /veh FAM26E (11764081_at) / RFU ISYNA1 (11749810_s_at) / Fold change /veh ISYNA1 (11749810_s_at) / RFU ACY1 (11761880_at) / Fold change /veh ACY1 (11761880_at) / RFU 11764098_at / Fold change /veh 11764098_at / RFU SAMD14 (11745864_x_at) / Fold change /veh SAMD14 (11745864_x_at) / RFU NPB (11741838_a_at) / Fold change /veh NPB (11741838_a_at) / RFU TMPRSS6 (11731388_a_at) / Fold change /veh TMPRSS6 (11731388_a_at) / RFU KRTAP10-2 (11738614_at) / Fold change /veh KRTAP10-2 (11738614_at) / RFU ARHGAP8 /// PRR5-ARHGAP8 (11727945_x_at) / Fold change /veh ARHGAP8 /// PRR5-ARHGAP8 (11727945_x_at) / RFU KRTAP5-7 /// NADSYN1 (11734609_at) / Fold change /veh KRTAP5-7 /// NADSYN1 (11734609_at) / RFU RASL12 (11751679_a_at) / Fold change /veh RASL12 (11751679_a_at) / RFU CDKN2B (11736163_a_at) / Fold change /veh CDKN2B (11736163_a_at) / RFU PRF1 (11729649_at) / Fold change /veh PRF1 (11729649_at) / RFU, ZNF638 /// ZNF638-IT1 / Fold change vs veh, ZNF638 /// ZNF638-IT1 / RFU, PANK3 / Fold change vs veh, PANK3 / RFU, SH3YL1 / Fold change vs veh, SH3YL1 / RFU, ZEB2 / Fold change vs veh, ZEB2 / RFU, NRIP1 / Fold change vs veh, NRIP1 / RFU, PTTG1IP / Fold change vs veh, PTTG1IP / RFU, CAPN2 / Fold change vs veh, CAPN2 / RFU, MED14 / Fold change vs veh, MED14 / RFU, SNORA58 / Fold change vs veh, SNORA58 / RFU, C1orf63 / Fold change vs veh, C1orf63 / RFU, LRRFIP1 / Fold change vs veh, LRRFIP1 / RFU, NDUFAF7 / Fold change vs veh, NDUFAF7 / RFU, SLC12A2 / Fold change vs veh, SLC12A2 / RFU, IBTK / Fold change vs veh, IBTK / RFU, ESF1 / Fold change vs veh, ESF1 / Fold change vs veh, TMEM50B / RFU, TAOK1 / Fold change vs veh, TAOK1 / RFU, ACBD3 / Fold change vs veh, ACBD3 / RFU, TMA16 / Fold change vs veh, TMA16 / RFU, RWDD3 / Fold change vs veh, RWDD3 / RFU, BCAT1 / Fold change vs veh, BCAT1 / RFU, EDEM3 / Fold change vs veh, EDEM3 / RFU, TMEM33 / Fold change vs veh, TMEM33 / RFU, WDR75 / Fold change vs veh, WDR75 / RFU, AHCTF1 / Fold change vs veh, AHCTF1 / RFU, TFRC / Fold change vs veh, TFRC / RFU, ZDHHC17 / Fold change vs veh, ZDHHC17 / RFU, NOM1 / Fold change vs veh, NOM1 / RFU, ARL8B / Fold change vs veh, ARL8B / RFU, ZBTB11 / Fold change vs veh, ZBTB11 / RFU, TAMM41 / Fold change vs veh, TAMM41 / RFU, KIAA1704 /// LOC100996395 / Fold change vs veh, KIAA1704 /// LOC100996395 / RFU, ING1 / Fold change vs veh, ING1 / RFU, TRMT61B / Fold change vs veh, TRMT61B / RFU, FUBP3 / Fold change vs veh, FUBP3 / RFU, TP53 / Fold change vs veh, TP53 / RFU, TNKS2 / Fold change vs veh, TNKS2 / RFU, ZFP14 / Fold change vs veh, ZFP14 / RFU, ACTR2 / Fold change vs veh, ACTR2 / RFU, PPP3R1 / Fold change vs veh, PPP3R1 / RFU, PIK3R1 / Fold change vs veh, PIK3R1 / RFU, HNRNPA1 / Fold change vs veh, HNRNPA1 / RFU, RNF170 / Fold change vs veh, RNF170 / RFU, ZNF28 / Fold change vs veh, ZNF28 / RFU, RNGTT / Fold change vs veh, RNGTT / RFU, OGT / Fold change vs veh, OGT / RFU, BRD1 / Fold change vs veh, BRD1 / RFU, MARS / Fold change vs veh, MARS / RFU, ZNF655 / Fold change vs veh, ZNF655 / RFU, FAHD1 / Fold change vs veh, FAHD1 / RFU, BDP1 / Fold change vs veh, BDP1 / RFU, LRRCC1 / Fold change vs veh, LRRCC1 / RFU, ARID1A / Fold change vs veh, ARID1A / RFU, ZNF146 / Fold change vs veh, ZNF146 / RFU, ZNF330 / Fold change vs veh, ZNF330 / RFU, GPN3 / Fold change vs veh, GPN3 / RFU, C9orf123 / Fold change vs veh, C9orf123 / RFU, N4BP2L2 / Fold change vs veh, N4BP2L2 / RFU, ARFIP1 / Fold change vs veh, ARFIP1 / RFU, FAM179B / Fold change vs veh, FAM179B / RFU, BCL10 / Fold change vs veh, BCL10 / RFU, UHRF1BP1L / Fold change vs veh, UHRF1BP1L / RFU, BET1 / Fold change vs veh, BET1 / RFU, CNOT2 / Fold change vs veh, CNOT2 / RFU, ZNF268 / Fold change vs veh, ZNF268 / Fold change vs veh, ZNF507 / RFU, DGCR2 / Fold change vs veh, DGCR2 / RFU, WDSUB1 / Fold change vs veh, WDSUB1 / Fold change vs veh, HSP90B1 /// MIR3652 / RFU, ADSS / Fold change vs veh, ADSS / RFU, GK / Fold change vs veh, GK / RFU, ZNF148 / Fold change vs veh, ZNF148 / RFU, TAF9 / Fold change vs veh, TAF9 / RFU, SLC1A5 / Fold change vs veh, SLC1A5 / RFU, SLMO2 / Fold change vs veh, SLMO2 / RFU, ABCC4 / Fold change vs veh, ABCC4 / RFU, LOC101060439 /// RAP1B / Fold change vs veh, LOC101060439 /// RAP1B / RFU, RFX7 / Fold change vs veh, RFX7 / RFU, GTPBP10 / Fold change vs veh, GTPBP10 / RFU, CNEP1R1 / Fold change vs veh, CNEP1R1 / RFU, BIVM-ERCC5 /// ERCC5 / Fold change vs veh, BIVM-ERCC5 /// ERCC5 / RFU, ILF3 / Fold change vs veh, ILF3 / RFU 11762660_at / Fold change /veh 11762660_at / RFU VCAN (11757783_s_at) / Fold change /veh VCAN (11757783_s_at) / RFU DDX43 (11728927_at) / Fold change /veh DDX43 (11728927_at) / RFU KRT8 (11758188_x_at) / Fold change /veh KRT8 (11758188_x_at) / RFU NKD1 (11759106_at) / Fold change /veh NKD1 (11759106_at) / RFU SRD5A1 (11742802_a_at) / Fold change /veh SRD5A1 (11742802_a_at) / RFU TPSAB1 /// TPSB2 (11721975_s_at) / Fold change /veh TPSAB1 /// TPSB2 (11721975_s_at) / RFU GSTM3 (11746129_a_at) / Fold change /veh GSTM3 (11746129_a_at) / RFU IL23R (11737362_x_at) / Fold change /veh IL23R (11737362_x_at) / RFU TMEM51 (11727254_a_at) / Fold change /veh TMEM51 (11727254_a_at) / RFU PIWIL2 (11732686_x_at) / Fold change /veh PIWIL2 (11732686_x_at) / RFU ORM1 (11744905_x_at) / Fold change /veh ORM1 (11744905_x_at) / RFU CCDC152 (11743942_at) / Fold change /veh CCDC152 (11743942_at) / RFU ECM1 (11717891_a_at) / Fold change /veh ECM1 (11717891_a_at) / RFU IL23R (11748794_a_at) / Fold change /veh IL23R (11748794_a_at) / RFU TNFAIP8L3 (11732012_x_at) / Fold change /veh TNFAIP8L3 (11732012_x_at) / RFU MBOAT4 (11741988_at) / Fold change /veh MBOAT4 (11741988_at) / RFU 11764193_at / Fold change /veh 11764193_at / RFU TMEM53 (11763286_at) / Fold change /veh TMEM53 (11763286_at) / RFU MAGEB2 (11727129_at) / Fold change /veh MAGEB2 (11727129_at) / RFU TMEM200A (11744735_a_at) / Fold change /veh TMEM200A (11744735_a_at) / RFU CCDC152 (11751479_a_at) / Fold change /veh CCDC152 (11751479_a_at) / RFU FAM211A (11726209_a_at) / Fold change /veh FAM211A (11726209_a_at) / RFU RGS16 (11746705_a_at) / Fold change /veh RGS16 (11746705_a_at) / RFU VCAN (11755009_s_at) / Fold change /veh VCAN (11755009_s_at) / RFU RHOB (11743442_s_at) / Fold change /veh RHOB (11743442_s_at) / RFU RGS16 (11720943_a_at) / Fold change /veh RGS16 (11720943_a_at) / RFU RGS16 (11720944_at) / Fold change /veh RGS16 (11720944_at) / RFU, VPS4B / Fold change vs veh, VPS4B / RFU, CREB1 / Fold change vs veh, CREB1 / RFU, DNAJC13 / Fold change vs veh, DNAJC13 / RFU, GNAQ / Fold change vs veh, GNAQ / RFU, CDK5R1 / Fold change vs veh, CDK5R1 / RFU, ZRANB3 / Fold change vs veh, ZRANB3 / RFU, CUL4A / Fold change vs veh, CUL4A / RFU, CCNY / Fold change vs veh, CCNY / RFU, UFL1 / Fold change vs veh, UFL1 / RFU, COG3 / Fold change vs veh, COG3 / RFU, DIAPH2 / Fold change vs veh, DIAPH2 / RFU, SKA2 / Fold change vs veh, SKA2 / RFU, AFF3 / Fold change vs veh, AFF3 / RFU, LMF1 / Fold change vs veh, LMF1 / RFU, IPO11 / Fold change vs veh, IPO11 / RFU, DFFB / Fold change vs veh, DFFB / RFU, FOXP1 / Fold change vs veh, FOXP1 / RFU, CARD8 / Fold change vs veh, CARD8 / RFU, STRN3 / Fold change vs veh, STRN3 / RFU, ADK / Fold change vs veh, ADK / RFU, RASSF2 / Fold change vs veh, RASSF2 / RFU, WIPF1 / Fold change vs veh, WIPF1 / RFU, LARP1B / Fold change vs veh, LARP1B / RFU, RASA1 / Fold change vs veh, RASA1 / RFU, RB1 / Fold change vs veh, RB1 / RFU, PPFIA1 / Fold change vs veh, PPFIA1 / RFU, MAT2A / Fold change vs veh, MAT2A / RFU, CCT5 / Fold change vs veh, CCT5 / RFU, WDR92 / Fold change vs veh, WDR92 / RFU, CUX1 / Fold change vs veh, CUX1 / RFU, TTC7A / Fold change vs veh, TTC7A / RFU, TMEM135 / Fold change vs veh, TMEM135 / RFU, DEPTOR / Fold change vs veh, DEPTOR / RFU, CPM / Fold change vs veh, CPM / RFU, DNAJB6 / Fold change vs veh, DNAJB6 / RFU, CACNA2D3 / Fold change vs veh, CACNA2D3 / RFU, DTX4 / Fold change vs veh, DTX4 / RFU, TFCP2 / Fold change vs veh, TFCP2 / RFU, GMCL1 /// GMCL1P1 / Fold change vs veh, GMCL1 /// GMCL1P1 / RFU, AEBP2 / Fold change vs veh, AEBP2 / RFU, SNHG1 /// SNORD22 /// SNORD25 /// SNORD26 /// SNORD27 /// SNORD28 /// SNORD29 /// SNORD31 / Fold change vs veh, SNHG1 /// SNORD22 /// SNORD25 /// SNORD26 /// SNORD27 /// SNORD28 /// SNORD29 /// SNORD31 / Fold change (Aza/veh), C12orf56 (ProbeSet 11735607_a_at) / Fold change (ACY-1035/veh), C12orf56 (ProbeSet 11735607_a_at) / Fold change (Aza/veh), FGFR1OP (ProbeSet 11751329_s_at) / Fold change (ACY-1035/veh), FGFR1OP (ProbeSet 11751329_s_at) / Fold change (Aza/veh), VPS36 (ProbeSet 11739960_a_at) / Fold change (ACY-1035/veh), VPS36 (ProbeSet 11739960_a_at) / RFU SYPL1 (11715823_x_at) / Fold change /veh SYPL1 (11715823_x_at) / RFU IGFBP7 (11715501_s_at) / Fold change /veh IGFBP7 (11715501_s_at) / RFU REEP3 (11722064_at) / Fold change /veh REEP3 (11722064_at) / RFU IGLL1 (11728026_x_at) / Fold change /veh IGLL1 (11728026_x_at): dose or concentration left out as unconfirmed
Conditions: MV-4-11 cells, 48 hours

Nc1ccc(-c2cccs2)cc1NC(=O)c1ccc2c(c1)cc(C1CC1)n2CCN1CCOCC1 [ACY-1035]
RFU PLEKHG5 (11737974_s_at): 47.67 RFU
